The conditions of this data set: Liquid, Closed cell (Static) method.

± gives the expanded uncertainty stated by the source.

The vapor or sublimation pressure is the equilibrium pressure above the liquid or solid. As to `F/C=C\C(F)(F)F` [(Z)-1,3,3,3-tetrafluoro-1-propene], the “vapor or sublimation pressure” value (273.15 K) was 68.5 ± 1 kPa, the “vapor or sublimation pressure” value (283.15 K) turned out to be 102.5 ± 1.1 kPa and the “vapor or sublimation pressure” value (293.15 K) is 148.9 ± 1.1 kPa.
Turning to `CCC` [propane], the “vapor or sublimation pressure” value reads like this: (253.15 K) 244.1 ± 1.2 kPa; (263.15 K) 345.1 ± 1.4 kPa; (273.15 K) 474.4 ± 1.7 kPa; (283.15 K) 636.4 ± 2.1 kPa; (293.15 K) 836.3 ± 2.6 kPa.

(Values after the NIST ThermoML archive (doi:10.1016/j.jct.2016.03.018).)
